Settings: for mass density: Vibrating tube method

FC(F)=C(F)C(F)(F)F [hexafluoropropene]
Settings | mass density [kg/m3] | vapor or sublimation pressure [kPa]
348.16 K, 3450.8 kPa, Liquid | 1027.09 | –
348.16 K, 3473.5 kPa, Liquid | 1028.21 | –
348.16 K, 3495.4 kPa, Liquid | 1029.31 | –
348.16 K, 3556 kPa, Liquid | 1032.19 | –
348.16 K, 3620.1 kPa, Liquid | 1035.16 | –
348.16 K, 3683.5 kPa, Liquid | 1037.98 | –
348.16 K, 3748.1 kPa, Liquid | 1040.81 | –
348.16 K, 3811.8 kPa, Liquid | 1043.57 | –
348.16 K, 3875.5 kPa, Liquid | 1046.1 | –
348.16 K, 4030.8 kPa, Liquid | 1052.17 | –
348.16 K, 4092 kPa, Liquid | 1054.62 | –
348.16 K, 4154 kPa, Liquid | 1057.08 | –
348.16 K, 4217.2 kPa, Liquid | 1059.37 | –
348.16 K, 4278.7 kPa, Liquid | 1061.59 | –
348.16 K, 4339.9 kPa, Liquid | 1063.83 | –
348.16 K, 4402.1 kPa, Liquid | 1065.77 | –
348.16 K, 4464.2 kPa, Liquid | 1067.89 | –
348.16 K, 4526 kPa, Liquid | 1070.05 | –
348.16 K, 4587.8 kPa, Liquid | 1072.01 | –
348.16 K, 4650.2 kPa, Liquid | 1074.03 | –
348.16 K, 4713.9 kPa, Liquid | 1075.88 | –
348.16 K, 4776 kPa, Liquid | 1077.88 | –
348.16 K, 4837.4 kPa, Liquid | 1079.66 | –
348.16 K, 4898.5 kPa, Liquid | 1081.71 | –
348.16 K, 4959.8 kPa, Liquid | 1083.32 | –
348.16 K, 5022.6 kPa, Liquid | 1085.31 | –
348.16 K, 5083.3 kPa, Liquid | 1086.88 | –
348.16 K, 5144.8 kPa, Liquid | 1088.55 | –
348.16 K, 5206 kPa, Liquid | 1090.21 | –
348.16 K, 5267.2 kPa, Liquid | 1091.82 | –
348.16 K, 5329.1 kPa, Liquid | 1093.58 | –
348.16 K, 5389.3 kPa, Liquid | 1095.16 | –
348.16 K, 5451.8 kPa, Liquid | 1096.85 | –
348.16 K, 5513.3 kPa, Liquid | 1098.5 | –
348.16 K, 5576.7 kPa, Liquid | 1100.15 | –
348.16 K, 5638.9 kPa, Liquid | 1101.65 | –
348.16 K, 5701.8 kPa, Liquid | 1103.22 | –
348.16 K, 5762.2 kPa, Liquid | 1104.69 | –
348.16 K, 5825.1 kPa, Liquid | 1106.21 | –
348.16 K, 5886.9 kPa, Liquid | 1107.77 | –
348.16 K, 5948.2 kPa, Liquid | 1109.1 | –
348.16 K, 6012.5 kPa, Liquid | 1110.68 | –
348.16 K, 6074.1 kPa, Liquid | 1112.14 | –
348.16 K, 6135.8 kPa, Liquid | 1113.56 | –
348.16 K, 6199.8 kPa, Liquid | 1114.99 | –
348.16 K, 6262.2 kPa, Liquid | 1116.4 | –
348.16 K, 6326.8 kPa, Liquid | 1117.78 | –
348.16 K, 6392.4 kPa, Liquid | 1119.12 | –
348.16 K, 6456 kPa, Liquid | 1120.57 | –
348.16 K, 6517.7 kPa, Liquid | 1121.84 | –
348.16 K, 6581 kPa, Liquid | 1123.2 | –
348.16 K, 6643.4 kPa, Liquid | 1124.53 | –
348.16 K, 6706.3 kPa, Liquid | 1125.82 | –
348.16 K, 6767.7 kPa, Liquid | 1127.07 | –
348.16 K, 6830.9 kPa, Liquid | 1128.32 | –
348.16 K, 6893 kPa, Liquid | 1129.63 | –
348.16 K, 6955.9 kPa, Liquid | 1130.87 | –
348.16 K, 7017.5 kPa, Liquid | 1132.05 | –
348.16 K, 7142.8 kPa, Liquid | 1134.61 | –
348.16 K, 7205.4 kPa, Liquid | 1135.79 | –
348.16 K, 7269.5 kPa, Liquid | 1136.95 | –
348.16 K, 7332.4 kPa, Liquid | 1138.09 | –
348.16 K, 7396.2 kPa, Liquid | 1139.31 | –
348.16 K, 7458.5 kPa, Liquid | 1140.53 | –
348.16 K, 7521.9 kPa, Liquid | 1141.64 | –
348.16 K, 7584.8 kPa, Liquid | 1142.73 | –
348.16 K, 7646.8 kPa, Liquid | 1143.93 | –
348.16 K, 7707.9 kPa, Liquid | 1145.12 | –
348.16 K, 7771.4 kPa, Liquid | 1146.25 | –
348.16 K, 7835.4 kPa, Liquid | 1147.35 | –
348.16 K, 7897.7 kPa, Liquid | 1148.36 | –
348.16 K, 7961.9 kPa, Liquid | 1149.49 | –
348.16 K, 8025.7 kPa, Liquid | 1150.51 | –
348.16 K, 8087.3 kPa, Liquid | 1151.69 | –
348.16 K, 8149.7 kPa, Liquid | 1152.67 | –
348.16 K, 8214.5 kPa, Liquid | 1153.77 | –
348.16 K, 8278.5 kPa, Liquid | 1154.85 | –
348.16 K, 8341.3 kPa, Liquid | 1155.78 | –
348.16 K, 8406.3 kPa, Liquid | 1157 | –
348.16 K, 8469.9 kPa, Liquid | 1157.97 | –
348.16 K, 8531.4 kPa, Liquid | 1158.94 | –
348.16 K, 8594.4 kPa, Liquid | 1159.97 | –
348.16 K, 8659.7 kPa, Liquid | 1160.84 | –
348.16 K, 8722.7 kPa, Liquid | 1161.97 | –
348.16 K, 8786.5 kPa, Liquid | 1163 | –
348.16 K, 8848.4 kPa, Liquid | 1163.83 | –
348.16 K, 8911.7 kPa, Liquid | 1164.85 | –
348.16 K, 8974.2 kPa, Liquid | 1165.76 | –
348.16 K, 9039.8 kPa, Liquid | 1166.77 | –
348.16 K, 9105.6 kPa, Liquid | 1167.83 | –
348.16 K, 9170.3 kPa, Liquid | 1168.8 | –
348.16 K, 9233.7 kPa, Liquid | 1169.7 | –
348.16 K, 9295.2 kPa, Liquid | 1170.74 | –
348.16 K, 9362.9 kPa, Liquid | 1171.78 | –
348.16 K, 9399.4 kPa, Liquid | 1172.31 | –
348.16 K, 9466.9 kPa, Liquid | 1173.32 | –
348.16 K, 9534.3 kPa, Liquid | 1174.34 | –
348.16 K, 9571.4 kPa, Liquid | 1174.89 | –
348.16 K, 9609.6 kPa, Liquid | 1175.39 | –
348.16 K, 9656.8 kPa, Liquid | 1176.01 | –
348.16 K, 9696 kPa, Liquid | 1176.45 | –
348.16 K, 9739.9 kPa, Liquid | 1177.06 | –
348.16 K, 9788.9 kPa, Liquid | 1175.42 | –
348.16 K, 9833.1 kPa, Liquid | 1175.9 | –
348.16 K, 9877.8 kPa, Liquid | 1176.32 | –
348.16 K, 9944.3 kPa, Liquid | 1179.73 | –
348.16 K, 10016 kPa, Liquid | 1180.6 | –
348.22 K, Liquid, Closed cell (Static) method | – | 2500.5
353.12 K, 6.6 kPa, Fluid (supercritical or subcritical phases) | 0.343 | –
353.12 K, 8.7 kPa, Fluid (supercritical or subcritical phases) | 0.497 | –
353.12 K, 11.7 kPa, Fluid (supercritical or subcritical phases) | 0.619 | –
353.12 K, 14.3 kPa, Fluid (supercritical or subcritical phases) | 0.737 | –
353.12 K, 16.6 kPa, Fluid (supercritical or subcritical phases) | 0.793 | –
353.12 K, 24.1 kPa, Fluid (supercritical or subcritical phases) | 1.232 | –
353.12 K, 26.7 kPa, Fluid (supercritical or subcritical phases) | 1.395 | –
353.12 K, 28.8 kPa, Fluid (supercritical or subcritical phases) | 1.442 | –
353.12 K, 32.7 kPa, Fluid (supercritical or subcritical phases) | 1.694 | –
353.12 K, 35.6 kPa, Fluid (supercritical or subcritical phases) | 1.827 | –
353.12 K, 38.2 kPa, Fluid (supercritical or subcritical phases) | 1.904 | –
353.12 K, 101.9 kPa, Fluid (supercritical or subcritical phases) | 5.291 | –
353.12 K, 111.4 kPa, Fluid (supercritical or subcritical phases) | 5.735 | –
353.12 K, 120.9 kPa, Fluid (supercritical or subcritical phases) | 6.245 | –
353.12 K, 129.7 kPa, Fluid (supercritical or subcritical phases) | 6.695 | –
353.12 K, 140.7 kPa, Fluid (supercritical or subcritical phases) | 7.318 | –
353.12 K, 151.2 kPa, Fluid (supercritical or subcritical phases) | 7.845 | –
353.12 K, 160.5 kPa, Fluid (supercritical or subcritical phases) | 8.339 | –
353.12 K, 169.9 kPa, Fluid (supercritical or subcritical phases) | 8.914 | –
353.12 K, 180.3 kPa, Fluid (supercritical or subcritical phases) | 9.389 | –
353.12 K, 189.6 kPa, Fluid (supercritical or subcritical phases) | 9.904 | –
353.12 K, 199 kPa, Fluid (supercritical or subcritical phases) | 10.374 | –
353.12 K, 209.3 kPa, Fluid (supercritical or subcritical phases) | 11.01 | –
353.12 K, 220.4 kPa, Fluid (supercritical or subcritical phases) | 11.538 | –
353.12 K, 230.8 kPa, Fluid (supercritical or subcritical phases) | 12.133 | –
353.12 K, 242.1 kPa, Fluid (supercritical or subcritical phases) | 12.723 | –
